This is an account of results in article PMC6768041 (Chemistry Central Journal, 2018).

One data set has as its system MAO-B. The conditions noted are these: at high concentrations 100 µM; cited from earlier work.
In data set [1] the target is T1, hMAO-A (Homo sapiens, UniProt P21397).
T1 construct: host or cells: insect cells (BTI-TN-5B14), recombinant baculovirus
T1 sequence (P21397 1-527): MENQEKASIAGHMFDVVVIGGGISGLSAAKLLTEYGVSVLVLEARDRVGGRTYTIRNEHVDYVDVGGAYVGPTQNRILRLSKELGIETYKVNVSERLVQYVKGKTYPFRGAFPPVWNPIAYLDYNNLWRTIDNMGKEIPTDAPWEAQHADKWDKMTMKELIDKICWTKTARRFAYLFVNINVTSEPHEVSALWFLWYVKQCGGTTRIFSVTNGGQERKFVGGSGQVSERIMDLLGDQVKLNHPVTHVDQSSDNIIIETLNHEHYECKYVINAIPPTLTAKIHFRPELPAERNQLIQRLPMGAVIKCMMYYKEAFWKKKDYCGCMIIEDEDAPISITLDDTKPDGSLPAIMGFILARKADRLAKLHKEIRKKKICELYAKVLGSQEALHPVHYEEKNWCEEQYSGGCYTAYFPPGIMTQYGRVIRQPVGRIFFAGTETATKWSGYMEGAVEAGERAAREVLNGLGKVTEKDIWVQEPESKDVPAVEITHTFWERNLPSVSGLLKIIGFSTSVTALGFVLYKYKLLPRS
The data set can be described thus: hMAO-A inhibition, Amplex Red fluorometric assay.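 For all read-outs here: recombinant human MAO-A and MAO-B from baculovirus-infected insect cell microsomes, H2O2 formation detected fluorometrically via Amplex Red with horseradish peroxidase, background from enzyme-free wells subtracted, distilled water negative control.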 Format: biochemical. The following applies: for Selectivity index: IC50 (MAO-A)/IC50 (MAO-B); for IC50: recombinant hMAO-A, p-tyramine substrate, mean SEM.
Description: (§3) The biological hMAO activity evaluation of the test drugs was examined by quantifying their action on the generation of H2O2 by p-tyramine (general substrate for hMAO-B and hMAO-A), utilizing the Amplex Red MAO assay kit (Sigma USA) and MAO isoforms (microsomal) obtained from insect cells (BTI-TN-5B14) expressed as recombinant baculovirus consisting cDNA probes for hMAO-A or hMAO-B. Reactions were monitored by thin layer chromatography TLC executed over silica gel precoated plates (0.25 mm) purchased from Merck, envisioned of single spots was carried in iodine and UV chambers, in mobile media TLC- Benzene:Chloroform (7:3).
(§4) All synthesized compounds were evaluated for their capability to inhibit the MAO-A and MAO-B isoforms of human MAO by a fluorometric method. The MAO inhibitory property of the test compounds was examined with the recombinant human enzymes using an Amplex Red Monoamine Oxidase Assay Kit (Sigma USA). The incessant peroxidase-linked photometric assay was performed on the fluorometer. […] Distilled water was used as a negative control. In brief, 0.1 mL of sodium phosphate buffer (0.05 M, pH 7.4) with the test new compounds/reference inhibitors in different concentrations and sufficient quantity of recombinant hMAO-A or hMAO-B requisite and in step to complete our investigational protocol with the equal reaction velocity, (hMAO-A: 1.1 mg protein; explicit activity: 150 nmol of p-tyramine oxidized to p-hydroxyphenylacetaldehyde/min/mg protein; hMAO-B: 7.5 mg protein; explicit activity: 22 nmol of p-tyramine changed/min/mg protein) were incubated for 15 min at 37 °C, placed in the dark fluorometric compartment. After incubation, the effect was attained through the addition of 200 mM Amplex Red reagent (final concentrations), 1 mM p-tyramine, and 1 U/mL horseradish peroxidase. Finally, the generation of hydrogen peroxide and, subsequently, of resorufin was measured at 37 °C in fluorescence reader (λemission, 585 nm, λexcitation, 530 nm) after 15 min, by the time fluorescence amplified linearly. All the control experiments were performed concurrently by changing the reference inhibitors and test compounds with suitable dilutions in the solvents. Moreover, the activity of abovementioned evaluated compounds to alter the fluorescence produced in the combination reaction by (e.g. for reacting with Amplex Red reagent directly) non-enzymatic inhibition was identified by addition of these compounds to solutions having just the Amplex Red reagent in a sodium phosphate buffer. […] The fluorescence reading was computed by subtraction of the background activity and was evaluated from wells with all components not including the hMAO isoforms that was substituted by a sodium phosphate buffer solution. All data was processed in Microsoft Excel, to calculate IC50 values.

The target of data set [2] is T2, hMAO-B (Homo sapiens, UniProt P27338).
T2 construct: host or cells: insect cells (BTI-TN-5B14), recombinant baculovirus
T2 sequence (P27338 1-520): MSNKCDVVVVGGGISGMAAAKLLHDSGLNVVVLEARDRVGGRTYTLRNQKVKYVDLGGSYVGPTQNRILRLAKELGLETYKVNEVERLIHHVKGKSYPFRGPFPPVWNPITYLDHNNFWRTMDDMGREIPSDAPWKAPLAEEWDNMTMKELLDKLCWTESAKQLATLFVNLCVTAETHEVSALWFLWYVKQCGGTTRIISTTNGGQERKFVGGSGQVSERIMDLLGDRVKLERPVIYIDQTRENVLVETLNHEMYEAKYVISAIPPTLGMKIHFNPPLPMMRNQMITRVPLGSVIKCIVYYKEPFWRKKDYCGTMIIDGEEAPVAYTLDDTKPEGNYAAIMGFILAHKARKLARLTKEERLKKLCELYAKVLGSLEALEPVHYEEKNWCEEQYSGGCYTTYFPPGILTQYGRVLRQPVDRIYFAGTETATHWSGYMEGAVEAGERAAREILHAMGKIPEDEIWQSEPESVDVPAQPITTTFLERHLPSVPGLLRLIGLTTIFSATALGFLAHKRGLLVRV
The data set can be described thus: Enzyme kinetics of MAO-B (Lineweaver–Burk plots). Format: biochemical. The following applies: several inhibitor concentrations, tyramine substrate. How it is done:
(§1) A set of Lineweaver–Burk plots was constructed in the presence and absence of different concentrations of compound 7 and 5 for hMAO-A and hMAO-B respectively. The graph comprises of five plots, every plot raised by quantifying MAO-B and MAO-A catalytic rate at various concentrations of substrate (0.5–5.0 µM).
(§2) Kinetic constants of steady-state (Vmax, maximum rate, and Km, Michaelis constant,) were measured by studying the effects of substrate concentration on the primary rate of reaction of MAO-A or MAO-B in absence and presence of compounds at diverse concentrations. To examine the mode of action by synthesized derivatives all of them were solubilized in dimethyl sulfoxide, with the concentration of 1%, and utilized in a wide concentration range. Construction of Lineweaver–Burk plots illustrated the mode of MAO inhibition. Selectivity index SI (Ki (MAO-A)/Ki (MAO-B)) was also computed. Enzyme kinetics for the interaction of the compounds with the MAO enzymes was computed on the GraphPad Prism 7 software.

Data set [3] is described as follows: DPPH radical scavenging assay. The following applies: mean ± SEM, n = 3. On the procedure:
DPPH (2,2-diphenyl-1-picryl-hydrazyl-hydrate) free radical process is an antioxidant assay based on electron-transfer that turns violet color in ethanol. The antioxidant activity was based on free radical scavenging effect towards stable DPPH• radical upon spectrophotometric reaction according to the method reported in the literature. Briefly, solutions of synthesized compounds were prepared in fifty milliliters of various concentrations (25, 50, 75, and 100) µg/mL dissolved in methanol, was added to 5 mL of a 0.004% methanol solution of DPPH. The stock solution was prepared with 0.01% DPPH• in ethanol/water (1:1). While sample solutions were prepared as 5 mL DPPH• solution was mixed with 5 mL ascorbic acid solution then shaken vigorously and kept in the dark at 37 °C. The samples were incubated at the 37 °C temperature for 30 min in the dark chamber subsequently, absorbance was measured. The marketable recognized antioxidant, ascorbic acid was utilized for contrast or as a positive control. Initially, the blank spectrum for ethanol/water was recorded subsequently the spectrophotometric titration was carried out with various concentrations of synthesized compounds. The absorbance was recorded at 517 nm with UV/Vis Epoch ELISA reader, and antioxidant activity was measured as a decrease in absorbance of DPPH•. The IC50 values of free radical DPPH, based on control reading were calculated by the following equation. %inhibition of DPPH radical=Abr-Aar/Abr×100 where Abr is the absorbance prior to reaction and Aar is the absorbance after reaction with DPPH•.
In general terms: Loss of DPPH colour is used to gauge radical scavenging.

In data set [4] the target is T2, hMAO-B. The data set can be described thus: hMAO-B inhibition, Amplex Red fluorometric assay. Format: biochemical. The conditions noted are these: recombinant hMAO-B, p-tyramine substrate; mean SEM.
Description: as §3, §4
Data set [5] can be described thus: Hydrogen peroxide scavenging (H2O2) assay. The conditions noted are these: mean ± SEM, n = 3; read-out: H2O2 radical scavenging IC50. How it is done:
Amongst the reactive oxygen species (ROS), H2O2 is an essential radical as even though it is not lethal of its own accord, but can be changed to further even highly toxic radicals, for instance, OH^• by hypochlorous acid or Fenton reaction by the oxidases enzymes. A solution of H2O2 (40 µM) was added in phosphate buffer saline ([…] pH 7.4). Different quantities of test and references compounds in DMSO were added to 2 mL of hydrogen peroxide solution in buffer solution. Subsequently, upon to 10 min, the absorbance was calculated at 230 nm against a blank solution including phosphate buffer without H2O2 [31]. The percentage of scavenging H2O2 was estimated by the formula in this way: %ScavengingH2O2=AS-AT/Ai×100 where AS is the absorbance of control and AT is the absorbance of the test.

Data set [6] has as its target T1, hMAO-A. The data set can be described thus: Enzyme kinetics of MAO-A (Lineweaver–Burk plots). Format: biochemical. The conditions noted are these: tyramine substrate. How it is done:
as §1, §2

Data set [7] deals with T2, hMAO-B. Also noted: method as in PMID 26592858. The conditions noted are these: cited from earlier work.
Data set [8] has as its target T1, hMAO-A. The conditions noted are these: cited from earlier work.

The term IC50 denotes the concentration needed to halve the response being measured. What is called melting point is the temperature of the solid-liquid transition.

Molecules are shown by their SMILES.

As for `O=C(/C=C/c1ccc(O)c(O)c1)OCCc1ccccc1` [CAPE, caffeic acid phenethyl ester], the “MAO-B inhibition in words” value in the data set with MAO-B is “inhibiting MAO-B”.
The molecule `O=C(/C=C/c1ccc(O)c(O)c1)Nc1cccc2ccccc12` [Compound 5, (E)-3-(3,4-dihydroxyphenyl)-N-(naphthalen-1-yl)acrylamide] came in with a melting point of 176 to 176.3 °C. For the same molecule, on hMAO-A [1], the Selectivity index turned out to be 4.653 and the IC50 was 50.26 ± 0.035 µM. For the same molecule, at hMAO-B [2], the “Vmax in Lineweaver–Burk plot (hMAO-B)” value is “same Vmax value at several concentrations”. This molecule also came in with an IC50 in data set [3] of 20.8 ± 0.003 µM. Further, the IC50 on hMAO-B [4] was 10.8 ± 0.024 µM. Besides, the IC50 in data set [5] came out at 17.64 ± 0.005 µM.
With `C=CCc1ccc(OC(=O)/C=C/c2ccc(O)c(O)c2)c(OC)c1` [Compound 7, (E)-4-allyl-2-methoxyphenyl 3-(3,4-dihydroxyphenyl)acrylate], the melting point lay in the range of 161 to 161.7 °C. Further, on hMAO-A [1], the Selectivity index was found to be 0.291 and the IC50 amounted to 7.03 ± 0.022 µM. In addition, the “Mode of inhibition (hMAO-A)” value at hMAO-A [6] is given as “competitive inhibition mode”. 11.22 ± 0.012 µM corresponded to half-maximal inhibition in data set [3] (IC50). The IC50 at hMAO-B [4] amounted to 24.14 ± 0.017 µM. For the same molecule, the IC50 in [5] came out at 12.78 ± 0.024 µM.
Turning to `COc1cc(/C=C/C(=O)O)ccc1O` [Ferulic acid], the “MAO inhibition value hMAO-B” value on hMAO-B [7] was 24.00 ± 1.98 µM. Also, on hMAO-A [8], the “MAO inhibition value hMAO-A” value is reported as 7.55 ± 0.49 µM.
